Measured values: paper PMC9112550, “Optimization of the antimicrobial peptide Bac7 by deep mutational scanning” (BMC Biology, 2022)
“And” between values parts separate entries of the source, which are not always exact repeats. Equal values may be shown once. Where no end group is shown, it is not given here.

What was measured:
HEK 293 ribosomes = assay: In vitro translation inhibition assay, HEK 293 S30 extract; assay type: biochemical, human; details: firefly luciferase mRNA, 800 to 0.08 μM, 1 h, 37°C, n = 9, p<10^−5, Wilcoxon
Procedure: To measure inhibition of the HEK 293 ribosome, an S30 extract was prepared from HEK 293-F cells. Suspension cultures of HEK 293-F cells (Gibco, Thermo Fisher) were maintained in 293 SFM II medium (Thermo Fisher) supplemented with 4 mM of L-glutamine according to the manufacturer’s instructions. Cells in the logarithmic phase were harvested by centrifugation for 18 min at 200 × g at 4°C. The cell pellet was washed twice with ice-cold PBS and pelleted again for 5 min at 200 × g at 4°C. Subsequently, cells were washed twice with ice-cold washing buffer (35 mM HEPES-KOH buffer pH 7.4, 146 mM NaCl, 11 mM D-(+)-glucose) and centrifuged for 5 min at 200 × g and 4°C. Cells were then resuspended in twice the volume of hypotonic buffer (20 mM HEPES-KOH buffer pH7.4, 10 mM KCl, 1.5 mM magnesium acetate, 1 mM DTT) and incubated for 10 min on ice. Cells were disrupted using a glass Dounce tissue homogenizer (Kimble, DWK Life Sciences, Mainz, Germany). After disruption, 0.1 volume of 10fold buffer (200 mM HEPES-KOH buffer pH 7.4, 1.2 M potassium acetate, 40 mM magnesium acetate, 50 mM DTT) of the total amount of hypotonic buffer was added. Cell debris was pelleted by centrifuging the lysate for 10 min at 700 × g at 4°C. The supernatant was then centrifuged for 15 min at 30,000 × g at 4°C.
(BIO-TEK FLx80, Witec AG, Littau, CH). […] Y=Bottom + (Top-Bottom)/(1+10^((X-LogIC50)))”.

mouse red blood cells = assay: Hemolysis assay; assay type: cell-based; details: 1 h, 37°C, DPBS, relative to Triton-X100 lysis control, triplicates
Procedure: Mouse blood was obtained from the ETH Phenomics Center. The erythrocytes were isolated by centrifugation at 500 × g for 10 min and removal of the blood plasma. The cells were washed three times by gently resuspending them in an equal volume of DPBS followed by centrifugation. After the last resuspension, the cells were diluted 1:50 in DPBS. For the hemolysis assay, a log2-serial dilution of each peptide was prepared as described for the MIC but using DPBS and 96-well plates (U-bottom, PP, 650201, Greiner) with a final volume of 100 μl. As lysis control, 2.5% Triton-X100 in DPBS was used in well 10, well 11 served as non-treated control (no peptide added), and well 12 as blank. To each well of the dilution plate, 100 μl of the red blood cells suspension was added. The plate was incubated for 1 h at 37°C. After incubation, the plate was centrifuged at 500 × g for 10 min and 100 μl of the supernatant was transferred to a clean 96-well plate (F-bottom, PS, 655101, Greiner). The absorbance was measured at 540 nm using an Infinite M1000 PRO plate reader (Tecan) and corrected by the measurements from the untreated wells. The lysis of each peptide concentration was expressed relative to the lysis control (set as 100% lysis). The hemolysis assay was performed in biological triplicates.

Sequence: RRIRIRPPRLPRPRPRPYFMPRP [Bac7PS]
- mean increase in ribosomal binding (translation inhibition IC50), HEK 293 ribosomes, compared to Bac7_1-23 (HEK 293 ribosomes): 38%
- Hemolysis of mouse red blood cells (mouse red blood cells; 1xMIC (MIC measured for E. coli ATCC 25922)): < 4% and 3.1%
- Hemolysis of mouse red blood cells (mouse red blood cells; 4xMIC (MIC measured for E. coli ATCC 25922)): < 7% and 3.8%
